These results are taken from patent US11505556B2, “Halogenated derivatives of morphinans and uses thereof” (Xalud Therapeutics, Inc., priority 2017, dated 2022).

For one series, the system named is Mouse hepatocytes. Kind of series: Hepatocyte elimination of parent compound.
For another series, the system named is hind paw incision pain. The series is described as follows: Rat hind paw incision pain model, SC dosing, von Frey testing (Example 2). Conditions: for effect on pain threshold (von Frey), day 1 and day 5 dosing: SC 3x per day for 5 days, XT-203 28 or 30 mg/kg, (+)-NTX data not shown. The class given is in vivo. The method, then: Rats were housed in temperature (23+/−3° C.) and light (12 hour:12 hour, light:dark cycle; lights on at 0700) controlled rooms with standard rodent chow and water available ad libitum.
Von Frey Test for Mechanical Allodynia: Rats received at least three 60 min habituations to the test environment prior to behavioral testing. Response thresholds to calibrated light pressure stimuli applied to the plantar surface of the paws was measured using the von Frey test. […] All testing was conducted blind with respect to group assignment. The behavioral responses were used to calculate the threshold, by fitting a Gaussian integral psychometric function using a maximum-likelihood fitting method, as described in detail previously (Id.). Allodynia was assessed pre- and post-drug delivery.
Behavior testing for pain responses by von Frey testing was used to establish pain thresholds in the affected hind paw. Because dosage was 3×/day, behavior testing was performed after the first and second dose of day 1 dosing (1.1, 1.2) and after the first and second dose of day 5 dosing (5.1, 5.2). Testing sessions were performed 30 minutes after the dose was administered.

In series [1] the test system is TLR4 (LPS-stimulated NO production, BV-2 mouse microglia cell line). Kind of series: NO assay: inhibition of LPS-induced NO production in BV-2 microglia (iNOS cellular). Format: cell-based. Conditions: for inhibition of NO production from LPS-stimulated BV2 cells: FIGS. 8B to 8D. From the text:
NO assay: Microglia are the resident cells of the innate immune system in the central nervous system, and TLR4 is primarily expressed by microglia rather than astrocytes or neurons in the CNS. Given this expression profile, the BV-2 mouse microglia cell line was used as the model system of microglia, as these cells recapitulate many of the responses of primary microglia with high fidelity. TLR4 activation induces the downstream production of the inflammatory factor NO, which contributes to the development of neuropathic pain and drug addiction. BV-2 murine microglia were grown in supplemented DMEM (including 10% FBS, 50 unit mL^−1 penicillin, 50 μg·mL^−1 streptomycin). BV-2 cells were detached from the flask by trypsin digestion when ˜80% confluence was reached. Cells were seeded at a density of 4×10^4 cells per well in 96-well plates. After overnight incubation, media was aspirated and changed to DMEM media without FBS. Cells were then treated with LPS (200 ng/ml) and different concentrations of the testing compounds. After 24 h treatment, 100 μL of supernatant media was removed after cells were treated for 24 h and added to flat black 96-well microfluor plates (Thermo Scientific, MA, USA). Subsequently, 10 μL of 2, 3-diaminonaphthalene (0.05 mg·mL^−1 in 0.62 M HCl) was added to each well and incubated for 15 min. The reaction was quenched by addition of 5 μL of 3 M NaOH and the plate was read on a Beckman Coulter DTX880 reader (Fullerton, Calif., USA) with excitation at 360 nm and emission at 430 nm.
N chain NTX: This experimentation involved an in vitro assay where mouse BV2 cells were treated with LPS, which results in the release of nitric oxide (NO). Blockade of TLR4 activity results in reduced NO production. Therefore, IC50 values were determined for test compounds that antagonize TLR4 activity. A series of test compounds were prepared, with different N-alkyl chains replacing the cyclopropyl methyl found in naltrexone. Cell viability was also measured by a standard assay, e.g., measurement of the release of cytoplasm-resident enzymes in the tissue culture supernatant or media to detect cell loss/lysis/rupture. A dose-inhibition curve was generated by testing the TLR4 antagonist compound for the ability to block LPS-stimulated iNOs induction. In FIG. 7, the inhibition levels across a range of doses are graphed, along with a regression curve. The IC50 value—50% inhibition level—is also provided, graphed against the length of the alkyl chain. Note that with longer N-alkyl chain the IC50 was reduced, although cell viability became problematic.
FIGS. 8B to 8D show the results of the inhibition of NO production from LPS-stimulated BV2 cells using the assay described above.

Series [2] is described as follows: in vitro. Conditions: mouse, hepatocytes.
Series [3] is described as follows: in vitro. Conditions: monkey, cultured hepatocytes.
Series [4] is described as follows: in vitro. Conditions: dog, cultured hepatocytes.
In another series the test system is Sodium channel site 2. Kind of series: Off-target screening. Format: binding. The source says:
(§1) In addition to the animal studies presented above in Examples 1-9, the results of in vitro testing of several of the compounds (i.e., XT-203, XT-204, and XT-206 through XT-217) are shown in Table 5 and Table 6. […]. Nine additional compounds had two or fewer off-target hits in the screening. […] These compounds spanned all of the tested N-modification classes. […]. Thus, the medicinal chemistry approach taken in this series of fluorinated compounds can yield low off-target activity and longer metabolic lifetime while preserving TLR4 antagonism. It is appreciated that further development of compounds in this class, using techniques known to those skilled in the art, may yield additional compounds with desirable pharmacologic and toxicologic characteristics.

A further series has as its target T1, Adrenergic α2A (Homo sapiens, UniProt P08913).
T1 sequence (P08913 1-465): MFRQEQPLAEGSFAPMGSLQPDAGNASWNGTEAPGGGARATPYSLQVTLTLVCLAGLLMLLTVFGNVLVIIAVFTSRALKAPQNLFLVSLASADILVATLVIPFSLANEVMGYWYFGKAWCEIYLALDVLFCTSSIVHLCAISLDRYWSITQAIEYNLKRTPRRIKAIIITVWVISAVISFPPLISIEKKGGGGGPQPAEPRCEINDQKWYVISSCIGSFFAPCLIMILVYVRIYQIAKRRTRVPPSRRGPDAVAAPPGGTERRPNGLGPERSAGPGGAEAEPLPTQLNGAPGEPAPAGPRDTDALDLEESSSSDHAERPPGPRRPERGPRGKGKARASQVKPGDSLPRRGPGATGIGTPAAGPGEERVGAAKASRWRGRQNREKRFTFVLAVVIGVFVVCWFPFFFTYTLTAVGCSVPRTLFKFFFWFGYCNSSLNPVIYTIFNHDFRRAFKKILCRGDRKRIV
Kind of series: Off-target screening. Format: binding.
From the text: as §1

The nature of series [5]: Hepatocyte elimination of parent compound, spread across species. As to conditions: mouse, rat, dog, monkey, human, hepatocytes; lowest to highest species value; read-out: range of hepatocyte elimination half-life values across species. The class given is in vitro ADME. As to the method: Hepatocyte Elimination: (+)-NTX, AK-17 and XT-203 were incubated with cultured hepatocytes from the species listed in FIG. 9 and Table 4, and samples of the culture supernatant were collected over time. Samples were concentrated by nitrogen drying followed by reconstitution with 40% methanol for LC/MS analysis The data points were analyzed using the WinNonLin pharmacokinetics software package, and a half-life was determined that describes the rate of parent elimination. […].
as §1

As for `O=C1CC[C@]2(O)[C@@H]3Cc4ccc(O)c5c4[C@]2(CCN3CC2CC2)[C@@H]1O5` [(+)-naltrexone, reference compound], the “glucuronidation of parent compound” value in the series with Mouse hepatocytes (mouse hepatocytes, compared with XT-203) was “significantly higher glucuronidation”. The “effect on pain threshold (von Frey), day 1 and day 5 dosing” value in the series on hind paw incision pain is “not effective”. Also, the “inhibition of NO production from LPS-stimulated BV2 cells” value in series [1] is “good viability and inhibition”. Besides, the IC50 (in general, the concentration that inhibits the measured activity by half) in series [1] (LPS (200 ng/ml), 24 h, BV-2 cells, Table 3) was 50 to 60 µM; in series [1] (Table 6, unit inferred, footnote: Indicator of TL4 antagonism) it was 50 to 60 µM.

Take `COc1ccc2c3c1O[C@@H]1C(F)CCC4[C@H](C2)N(CC2CC2)CC[C@]341` (some centres unmarked) [XT-203]: the half-life (in general, the time needed for the level to fall by half in the phase considered) in the series “in vitro [2]” is approximately 27 min; in “in vitro [3]” it was 13.7 min; in “in vitro [4]”, 24.3 min; in series [5], 13.2 to 54.3 min. For the same molecule, the “Parent compound hepatocyte elimination half-life, Mouse” value in the series on Mouse hepatocytes (cultured mouse hepatocytes) was 26.28 min. Besides, in the series on hind paw incision pain, the “effect on pain threshold (von Frey), day 1 and day 5 dosing” value was “substantial effects”. Moreover, the “effect during day 5 testing compared with morphine 3 mg/kg” value in the series with hind paw incision pain (XT-203 28 or 30 mg/kg SC 3x per day) was “matching the response to morphine”. The “inhibition of NO production from LPS-stimulated BV2 cells” value in series [1] was “good viability and inhibition”. Also, the IC50 is 30 µM in series [1] (Mus musculus, Microglia, Table 6, unit inferred, footnote: Indicator of TL4 antagonism) and 30 to 50 µM in series [1] (Mus musculus, LPS (200 ng/ml), 24 h, BV-2 cells, Table 3). Moreover, the % Inhibition (as a rule, the change of the read-out against control, counted positive when it falls) at 10 μM, Sodium channel site 2 was 64% in the series with Sodium channel site 2 (10 µM) and 54% in the series with Sodium channel site 2 (listed as XT 203, 10 µM). The “% Inhibition at 10 μM, Adrenergic α2A” value is recorded as 99% at Adrenergic α2A and 64% on Adrenergic α2A (listed as XT 203, 10 µM). Further, the inhibition (in general, the percentage by which the read-out fell short of the control) at 1 µM at Adrenergic α2A (read-out: % inhibition at 1 μM (retest), Adrenergic α2A, 1 μM) was less than 50%.
